Test results published in publication PMC3062907 (Advanced synthesis & catalysis, 2008).

Experiments:
Hsp90 = Hsp90 inhibition; type: biochemical; settings: read-out: Hsp90 inhibition (IC50); in vitro; preliminary evaluation
[1] = in vivo settings; earlier work of the authors, no reference given; cited from earlier work
[2] = ref ix; cited from earlier work
[3] = system: Rb (retinoblastoma)-negative cells; settings: cells resistant to 17-AAG; ref x; cited from earlier work
[4] = system: human colon carcinoma (HCT-116); test: In vivo study in mice implanted with human colon carcinoma; settings: mice implanted with HCT-116; 75 mg/kg, QDx7; preliminary
[5] = system: MCF-7 breast cancer cells; settings: read-out: inhibitory activity against MCF-7 breast cancer cells (IC50); ref xiii; cited from earlier work

IC50 (Hsp90)	Compound	in vivo activity [1]	hepatotoxicity compared with 17-AAG [2]	cytotoxicity against Rb-negative cells [3]	tumor cell growth suppression [4]	IC50 [5]
–	C[C@@H]1C[C@H]2O[C@@H]2/C=C\C=C\C(=O)Cc2c(Cl)c(O)cc(O)c2C(=O)O1 [Radicicol (1), radicicol]	inactive	significantly less hepatotoxic than 17-AAG (3)	potent cytotoxicity	–	–
160 nM	C[C@@H]1C[C@H]2C[C@@H]2/C=C\C=C\C(=O)Cc2c(Cl)c(O)cc(O)c2C(=O)O1 [cycloproparadicicol (4), cycloproparadicicol]	–	–	–	68%	49 nM
